Entries after “also recorded” stand apart in the source; their conditions may differ.
How the values were obtained:
[1] = test system: migraine headache; details: human, in vivo
[2] = human, in vivo
[3] = test system: neuropathic facial pain; set-up: species or system human; details: in vivo
[4] = test system: nausea; details: human, in vivo

CNS(=O)(=O)Cc1ccc2[nH]cc(CCN(C)C)c2c1 [sumatriptan tablet, sumatriptan]
benefit for rescue [1]: not helpful; also recorded: partially helpful; also recorded: without benefit

CC1(C)O[C@@H]2[C@@H](CO[C@@]3(COS(N)(=O)=O)OC(C)(C)O[C@@H]23)O1 [topiramate]
benefit as prophylactic agent for migraines [1]: without benefit
benefit for migraine prophylaxis [1]: helped some
benefit for migraine prophylaxis, history at first visit [1]: no benefit
frequency of severe migraine headaches on treatment [1]: 5 to 7 days a week
tolerability [2]: could not tolerate the side effects

CCN(CC)CCNC(=O)c1cc(Cl)c(N)cc1OC [metoclopramide]
tolerability [2]: intolerant

CC(C)C[C@H](CN)CC(=O)O [pregabalin]
benefit as prophylactic agent for migraines [1]: without benefit
effect on comorbid neuropathic facial pain [3]: treated effectively

Cc1nccn1CC1CCc2c(c3ccccc3n2C)C1=O (centres unmarked) [ondansetron]
effect on nausea [4]: at times helpful for nausea

NCC(CC(=O)O)c1ccc(Cl)cc1 (centres unmarked) [baclofen]
benefit as prophylactic agent for migraines [1]: without benefit
benefit for migraine prophylaxis, history at first visit [1]: no benefit
benefit from previous treatment [1]: no benefit

C[C@]12C=CC(=O)C=C1CC[C@@H]1[C@@H]2C(=O)C[C@@]2(C)[C@H]1CC[C@]2(O)C(=O)CO [prednisone]
benefit as prophylactic agent for migraines [1]: without benefit

NS(=O)(=O)Cc1noc2ccccc12 [zonisamide]
benefit as prophylactic agent for migraines [1]: without benefit

COc1cccc(C2(O)CCCCC2CN(C)C)c1 (centres unmarked) [tramadol]
benefit for rescue [1]: partially helpful; also recorded: without benefit

CC(C)Cc1ccc(C(C)C(=O)O)cc1 (centres unmarked) [ibuprofen]
benefit from previous treatment [1]: no benefit

COC1=C(OC)C(=O)C(C/C=C(\C)CC/C=C(\C)CC/C=C(\C)CC/C=C(\C)CC/C=C(\C)CC/C=C(\C)CC/C=C(\C)CC/C=C(\C)CC/C=C(\C)CCC=C(C)C)=C(C)C1=O [coenzyme Q10]
benefit as prophylactic agent for migraines [1]: without benefit
benefit for prophylaxis [1]: no benefit
effect on frequency of headaches after 4-6 weeks [1]: did not affect the frequency

Clc1ccc2nsnc2c1NC1=NCCN1 [tizanidine]
benefit as prophylactic agent for migraines [1]: without benefit
benefit for prophylaxis [1]: partially helpful

CCCC(CCC)C(=O)O [valproic acid]
benefit as prophylactic agent for migraines [1]: without benefit

CC(C)NCC(O)COc1cccc2ccccc12 (centres unmarked) [propranolol]
benefit as prophylactic agent for migraines [1]: without benefit
benefit from previous treatment [1]: no benefit
tolerability [2]: caused dizziness

CCCCN1CCCCC1C(=O)Nc1c(C)cccc1C (centres unmarked) [bupivacaine]
pain after local anesthetic injection along superior nuchal line [1]: substantially improved for two days

CCCCc1nc(Cl)c(CO)n1Cc1ccc(-c2ccccc2-c2nn[nH]n2)cc1 [losartan]
benefit for migraine prophylaxis, history at first visit [1]: no benefit

CN(C)CCC=C1c2ccccc2CCc2ccccc21 [amitriptyline]
benefit as prophylactic agent for migraines [1]: without benefit

NC(=O)N1c2ccccc2C=Cc2ccccc21 [carbamazepine]
benefit as prophylactic agent for migraines [1]: without benefit

Cc1cc2nc3c(=O)[nH]c(=O)nc-3n(C[C@H](O)[C@H](O)[C@H](O)CO)c2cc1C [riboflavin]
effect on frequency of headaches after 4-6 weeks [1]: did not affect the frequency

CN(C)CCc1c[nH]c2ccc(Cn3cncn3)cc12 [rizatriptan]
benefit for rescue [1]: no longer effective
share of the time it worked for rescue [1]: approximately 20 % of the time
adverse effect when tried for rescue [2]: severe elevation in their blood pressure

O=C(O)Cc1ccccc1Nc1c(Cl)cccc1Cl [diclofenac]
benefit for rescue [1]: without benefit

CN(C)CCc1c[nH]c2ccc(C[C@H]3COC(=O)N3)cc12 [zolmitriptan nasal spray, zolmitriptan]
benefit for rescue [1]: without benefit

C[C@@H]1[C@H](c2ccccc2)C[C@H](NC(=O)c2cnc3c(c2)C[C@@]2(C3)C(=O)Nc3ncccc32)C(=O)N1CC(F)(F)F [Ubrelvy]
benefit for rescue [1]: not helpful

Oc1ccc2c(c1)[C@@]13CCCC[C@@]1(O)[C@@H](C2)N(CC1CCC1)CC3 [butorphanol]
benefit for rescue [1]: without benefit

CN1CCC[C@@H]1Cc1c[nH]c2ccc(CCS(=O)(=O)c3ccccc3)cc12 [eletriptan]
benefit for rescue [1]: consistently effective

NCC1(CC(=O)O)CCCCC1 [gabapentin]
benefit as prophylactic agent for migraines [1]: without benefit
benefit for migraine prophylaxis, history at first visit [1]: no benefit
benefit from previous treatment [1]: no benefit

B1: Ajovy: prophylactic agent tried for migraines (antibody, chains of the INN, looked up, V domains shown)
VH: EVQLVESGGGLVQPGGSLRLSCAASGFTFSNYWISWVRQAPGKGLEWVAEIRSESDASATHYAEAVKGRFTISRDNAKNSLYLQMNSLRAEDTAVYYCLAYFDYGLAIQNYWGQGTLVTVSS
VL: EIVLTQSPATLSLSPGERATLSCKASKRVTTYVSWYQQKPGQAPRLLIYGASNRYLGIPARFSGSGSGTDFTLTISSLEPEDFAVYYCSQSYNYPYTFGQGTKLEIK
benefit as prophylactic agent for migraines [1]: without benefit

B2: Emgality: prophylactic agent prescribed for chronic migraine (antibody, chains of the INN, looked up, V domains shown)
VH: QVQLVQSGAEVKKPGSSVKVSCKASGYTFGNYWMQWVRQAPGQGLEWMGAIYEGTGKTVYIQKFADRVTITADKSTSTAYMELSSLRSEDTAVYYCARLSDYVSGFGYWGQGTTVTVSS
VL: DIQMTQSPSSLSASVGDRVTITCRASKDISKYLNWYQQKPGKAPKLLIYYTSGYHSGVPSRFSGSGSGTDFTLTISSLQPEDFATYYCQQGDALPPTFGGGTKVEIK
benefit as prophylactic agent for migraines [1]: without benefit
benefit for migraine prophylaxis [1]: significantly improved
benefit for migraine prophylaxis, history at first visit [1]: had not noticed any obvious benefit
benefit for migraine, subsequent treatment rounds [1]: reduced the pain somewhat, but had not reduced the frequency or duration
frequency of headaches with throbbing, light and sound sensitivity [1]: once or twice per week
migraine frequency on treatment [1]: 2 to 3 days/week
side effects [2]: caused unwanted side effects

— US20250339461A1 (priority 2024, published 2025)
